Assay results as given in ChEMBL document CHEMBL5223091, “Targeting the Mitotic Kinesin KIF18A in Chromosomally Unstable Cancers: Hit Optimization Toward an In Vivo Chemical Probe” (J Med Chem, 2022).

What was measured:
[1] = Metabolic stability in mouse liver microsomes assessed as intrinsic clearance at 0.5 uM incubated upto 40 mins by LCMS analysis; assay type: ADME, Microsome; conditions: read-out: CLH
OVCAR-3 [2] = assay: Antiproliferative activity against human OVCAR-3 cells by nuclear count assay; assay type: functional, cell-based
[3] = target: T1, Kinesin-like protein KIF18A (Homo sapiens, UniProt Q8NI77); assay: Inhibition of recombinant His-tagged human KIF18A (1 to 467 residues) expressed in Trichoplusia ni insect cells assessed as inhibition of microtubule-stimulated ATPase activity preincubated for 30 mins followed by ATP addition and further incubated for 15 mins by ADP-Glo reagent based assay; set-up: species or system Insect cell
T1 sequence (Q8NI77 whole entry): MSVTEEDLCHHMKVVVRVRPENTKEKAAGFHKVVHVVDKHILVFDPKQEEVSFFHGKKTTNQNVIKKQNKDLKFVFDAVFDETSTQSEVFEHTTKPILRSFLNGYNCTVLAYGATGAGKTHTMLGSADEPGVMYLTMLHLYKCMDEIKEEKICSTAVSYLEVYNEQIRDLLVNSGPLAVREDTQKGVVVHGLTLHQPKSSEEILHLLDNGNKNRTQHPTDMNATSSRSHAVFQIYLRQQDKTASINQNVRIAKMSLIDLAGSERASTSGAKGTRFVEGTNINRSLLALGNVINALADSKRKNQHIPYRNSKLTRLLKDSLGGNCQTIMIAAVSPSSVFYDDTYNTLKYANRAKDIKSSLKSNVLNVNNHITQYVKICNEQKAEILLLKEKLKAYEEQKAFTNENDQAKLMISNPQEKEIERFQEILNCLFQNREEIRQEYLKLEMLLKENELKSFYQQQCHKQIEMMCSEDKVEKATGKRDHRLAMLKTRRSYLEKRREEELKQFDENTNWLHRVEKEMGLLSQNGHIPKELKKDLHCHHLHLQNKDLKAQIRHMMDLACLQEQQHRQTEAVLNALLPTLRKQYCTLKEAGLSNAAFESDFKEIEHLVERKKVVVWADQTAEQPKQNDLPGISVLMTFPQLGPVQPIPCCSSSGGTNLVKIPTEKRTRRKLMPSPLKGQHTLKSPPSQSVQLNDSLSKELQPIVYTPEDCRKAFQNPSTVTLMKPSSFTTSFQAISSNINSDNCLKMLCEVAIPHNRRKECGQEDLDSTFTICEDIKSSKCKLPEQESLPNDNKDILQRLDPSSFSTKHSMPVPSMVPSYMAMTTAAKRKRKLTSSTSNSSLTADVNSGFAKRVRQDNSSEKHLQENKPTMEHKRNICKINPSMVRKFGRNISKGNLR

[4] = AUC (0 to 24 hrs) in CD-1 mouse xenografted with human OVCAR-3 cells at 100 mg/kg, ip by LC-MS/MS analysis; assay type: ADME, organism-based; set-up: dose 100 mg/kg, route ip; conditions: in vivo
[5] = Metabolic stability in human liver microsomes assessed as intrinsic clearance at 0.5 uM incubated upto 40 mins by LCMS analysis; assay type: ADME, Microsome; conditions: read-out: CLH
[6] = Plasma concentration in CD-1 mouse xenografted with human OVCAR-3 cells at 100 mg/kg, ip measured upto 24 hrs by LC-MS/MS analysis; assay type: ADME, organism-based
[7] = Unbound fraction in CD-1 mouse plasma xenografted with human OVCAR-3 cells at 100 mg/kg, ip by LC-MS/MS analysis; assay type: ADME, organism-based
OVCAR-3 [8] = assay: Induction of mitotic arrest in human OVCAR-3 cells assessed as p-histone H3 incubated for 24 hrs by mitotic - imaging assay; assay type: functional, cell-based; conditions: OVCAR-3, 24 h
[9] = Cmax in CD-1 mouse xenografted with human OVCAR-3 cells at 100 mg/kg, ip by LC-MS/MS analysis; assay type: ADME, organism-based; set-up: dose 100 mg/kg, route ip; conditions: in vivo
[10] = Drug metabolism in mouse liver microsomes assessed as di-hydroxylate metabolite formation in presence of NADPH by LC-MS/MS analysis; assay type: ADME, Microsome
[11] = Drug metabolism in mouse liver microsomes assessed as mono-hyoxylate metabolite formation in presence of NADPH by LC-MS/MS analysis; assay type: ADME, Microsome
[12] = target: T1, Kinesin-like protein KIF18A; assay: Binding affinity to KIF18A (unknown origin) by NMR based assay
Tubulin = assay: Binding affinity to microtubule (unknown origin) by NMR based assay; assay type: protein-complex assay, Homo sapiens
[13] = target: T1, Kinesin-like protein KIF18A; assay: Inhibition of KIF18A ATPase activity (unknown origin)
[14] = Binding affinity to KIF18A- MT complex (unknown origin) by NMR based assay; set-up: species or system Homo sapiens
OVCAR-3 [15] = assay: Antimitotic activity in human OVCAR-3 cells xenografted in CD-1 mouse assessed as fold increase in mitotic cells in tumor at 100 mg/kg, po measured after 24 hrs relative to control; assay type: functional

| microsomal CLint at 0.5 µM [1] [µL/min/mg] | EC50 (OVCAR-3 [2]) [nM] | IC50 [3] [nM] | microsomal CLint at 0.5 µM [5] [µL/min/mg] | EC50 (OVCAR-3 [8]) [nM] | SMILES | other results |
| --- | --- | --- | --- | --- | --- | --- |
| 81 | 16 | 28 | 79 | 16 | CC(C)(C)NS(=O)(=O)c1cccc(NC(=O)c2ccc(NS(C)(=O)=O)cc2N2CCC3(CC2)CC3)c1 | AUC(0-t) [4]: 147 µM·h; concentration at 24 h [6]: 2.9 µM; fraction unbound [7]: 0.007; Cmax [9]: 12.6 µM |
| > 399 | 1240 | 410 | > 399 | 1870 | O=C(Nc1cccc(S(=O)(=O)C2CCCC2)c1)c1cccnc1N1CCC2(CC1)CC2 | Drug metabolism [10]: Metabolite_Detected; Drug metabolism [11]: Metabolite_Detected |
| – | – | 90 | – | – | C[C@H](NS(=O)(=O)c1cccc(NC(=O)c2ccc(NC(CO)CO)nc2N2CCC3(CC2)CC3)c1)C(F)(F)F | Kd [12]: > 50000 nM; Kd (Tubulin): 25000 nM; IC50 [13]: 32000 nM; Kd [14]: 150 nM |
| – | – | – | – | – | CC[C@@H]1C(=O)N(C)c2cnc(Nc3ccc(C(=O)NC4CCN(C)CC4)cc3OC)nc2N1C1CCCC1 [BI-2536] | fold change (FC) (OVCAR-3 [15]): >3 |
